Converted amounts (≈) assume the structure as drawn.

In data set [1] the test system is B. catarrhalis W-0500. Put plainly: Antibiotic activities (MIC), agar dilution. Format: cell-based. The settings on record: Moraxella catarrhalis, W0500, Sensitivity Disk agar-N+5% Horse blood, inoculant 10^6 CFU/ml, read-out: minimum inhibiting concentration (MIC). Here is the method: (§1) The minimum inhibiting concentrations (MIC, μg/ml) of representative compounds among the novel carbapenem derivatives according to the present invention to various pathogenic bacteria were measured in accordance with the method described in CHEMOTHERAPY, vol. 16, No. 1, 99, 1968. The culture medium for measurement was Sensitivity Disk agar-N+5% Horse blood, and the amount of inoculants was 10^6 CFU/ml.
For orientation: In agar dilution, organisms are placed on agar that contains the substance at set levels.

The test system of data set [2] is E. coli NIHJ JC-2. Put plainly: Antibiotic activities (MIC), agar dilution. Format: cell-based. Particulars: Escherichia coli, NIHJJC2, Sensitivity Disk agar-N+5% Horse blood, inoculant 10^6 CFU/ml, read-out: minimum inhibiting concentration (MIC). Here is the method: as §1
Data set [3] has as its system H. influenzae PRC44. Nature of the data set: Antibiotic activities (MIC), agar dilution. The class given is cell-based. Particulars: Haemophilus influenzae, Sensitivity Disk agar-N+5% Horse blood, inoculant 10^6 CFU/ml, read-out: minimum inhibiting concentration (MIC). Here is the method: as §1
Data set [4] concerns K. pneumoniae PCI602. Nature of the data set: Antibiotic activities (MIC), agar dilution. The class given is cell-based. Particulars: Klebsiella pneumoniae, Sensitivity Disk agar-N+5% Horse blood, inoculant 10^6 CFU/ml, read-out: minimum inhibiting concentration (MIC). The method, then: as §1
Data set [5] concerns S. aureus 209P JC-1. Put plainly: Antibiotic activities (MIC), agar dilution. Format: cell-based. Particulars: Staphylococcus aureus, Sensitivity Disk agar-N+5% Horse blood, inoculant 10^6 CFU/ml, read-out: minimum inhibiting concentration (MIC). Here is the method: as §1
Data set [6] deals with S. aureus M126 (methicillin-hyperresistant strain). Nature of the data set: Antibiotic activities (MIC), agar dilution. The class given is cell-based. Particulars: Staphylococcus aureus, Sensitivity Disk agar-N+5% Horse blood, inoculant 10^6 CFU/ml, read-out: minimum inhibiting concentration (MIC). The method, then:
as §1

In data set [7] the test system is S. aureus M126 HR (methicillin-hyperresistant strain). Put plainly: Antibiotic activities (MIC), agar dilution. Format: cell-based. The settings on record: Staphylococcus aureus, Sensitivity Disk agar-N+5% Horse blood, inoculant 10^6 CFU/ml, read-out: minimum inhibiting concentration (MIC). The method, then: as §1
The test system of data set [8] is S. pneumoniae PRC9 (penicillin-hyperresistant strain). Put plainly: Antibiotic activities (MIC), agar dilution. Particulars: Streptococcus pneumoniae, Sensitivity Disk agar-N+5% Horse blood, inoculant 10^6 CFU/ml, read-out: minimum inhibiting concentration (MIC). The class given is cell-based. The method, then:
as §1

Data set [9] relates to Staphylococcus aureus MF126 (MRSA). Nature of the data set: Therapeutic effect on mice subjected to general infection with MRSA. Format: in vivo. The settings on record: cyclophosphamide-treated mice, subcutaneous with cilastatin 2 and 4 hours after infection, survival rate on seventh day. The method, then:
The therapeutic effect of representative compounds among the novel carbapenem derivatives according to the present invention on mice subjected to general infection with MRSA were assayed by the following method, and the results are shown in Table 2. Specifically, cyclophosphamide (200 mg/kg) was administered intraperitoneally to mice (n=8), and, four days after the administration of cyclophosphamide, Staphylococcus aureus MF126 (MRSA) was inoculated intraperitoneally to infect the mice with MRSA. Cilastatin (1 mg/mouse) and the carbapenem compound in an indicated amount were subcutaneously administered two hours and four hours after the infection. ED50 was calculated based on the survival rate on the seventh day after the infection.

Data set [10] is classed as in vivo. The settings on record: intravenously, 1,000 mg/kg, ICR male mice, three mice per group. Here is the method: The compound of Example 1 was administered intravenously to mice (ICR, male, each group consisting of three mice) in an amount of 2,000 mg/kg.
The compound of Example 2 was administered intravenously to mice (ICR, male, each group consisting of three mice) in an amount of 1,000 mg/kg.

Where [11] appears, read: Amount of inoculant: 2.8 × 10^6 CFU/mouse.
Setting [12] is: Amount of inoculant: 5.9 × 10^6 CFU/mouse.

In the case of `C[C@@H](O)[C@H]1C(=O)N2C(C(=O)O)=C(SCCN=CN)C[C@H]12` [Compound C, Imipenem, reference compound], the MIC in [1] was determined as 0.063 µg/mL (≈ 0.21 µM); in data set [2] it was 0.125 µg/mL (≈ 0.418 µM); in data set [3], 8 µg/mL (≈ 26.7 µM); in [4] it was 0.25 µg/mL (≈ 0.835 µM); in [5] it was 0.008 µg/mL (≈ 0.0267 µM); in [6] it was 4 µg/mL (≈ 13.4 µM). In addition, the figures for the MIC in data set [7] and in data set [8] were 64 µg/mL (≈ 214 µM) and 0.25 µg/mL (≈ 0.835 µM), respectively.
In the case of `C[C@@H](O)[C@H]1C(=O)N2C(C(=O)[O-])=C(c3cn4cnc(C(=O)c5ccc[n+](CC(N)=O)c5)c4s3)[C@H](C)[C@H]12` [Example 2, (1S,5R,6S)-2-[7-(1-Carbamoylmethylpyridinium-3-yl)carbonylimidazo[5,1-b]thiazol-2-yl]-6-((1R)-1-hydroxyethyl)-1-methyl-1-carbapen-2-em-3-carboxylate], the MIC is 0.016 µg/mL (≈ 0.0323 µM) in [1]; 0.031 µg/mL (≈ 0.0626 µM) in data set [2]; 0.031 µg/mL (≈ 0.0626 µM) in data set [3]; 0.063 µg/mL (≈ 0.127 µM) in data set [4]; less than 0.008 µg/mL in [5]; 0.5 µg/mL (≈ 1.01 µM) in data set [6]. Moreover, the figures for the MIC in [7] and in data set [8] were 2 µg/mL (≈ 4.04 µM) and 0.031 µg/mL (≈ 0.0626 µM), respectively. Also, the ED50 in [9] (setting [11]) is on record as 0.07 mg/mouse. Moreover, the “survival in acute toxicity test” value in [10] was “all of the mice survived”.
`C[C@@H](O)[C@H]1C(=O)N2C(C(=O)[O-])=C(c3cn4cnc(C(=O)c5cc(SCCN)c[n+](CC(=O)O)c5)c4s3)[C@H](C)[C@H]12` [Example 37, (1S,5R,6S)-2-[7-[5-(2-Aminoethyl)thio-1-carboxylmethylpyridinium-3-yl]carbonylimidazo[5,1-b]-thiazol-2-yl]-6-((1R)-1-hydroxyethyl)-1-methyl-1-carbapen-2-em-3-carboxylate] showed an ED50 in data set [9] (Amount of inoculant: 2.5 × 10^6 CFU/mouse) of 0.139 mg/mouse.
`C[C@@H](O)[C@H]1C(=O)N2C(C(=O)O)=C(c3cn4cnc(C(=O)[C@@H]5CCCN5)c4s3)[C@H](C)[C@H]12` [Example 11, Sodium (1S,5R,6S)-6-((1R)-1-hydroxyethyl)-1-methyl-2-[7-((2S)-pyrrolidin-2-yl)carbonylimidazo[5,1-b]thiazol-2-yl]-1-carbapen-2-em-3-carboxylate]: in data set [9] (setting [11]), the ED50 turned out to be 0.25 mg/mouse.
As to `C[C@@H](O)[C@H]1C(=O)N2C(C(=O)[O-])=C(c3cn4cnc(C(=O)c5ccccc5)c4s3)[C@H](C)[C@H]12.[Na+]` [Compound B, Sodium (1S,5R,6S)-2-(7-benzoylimidazo[5,1-b]thiazol-2-yl)-6-((1R)-1-hydroxyethyl)-1-methyl-1-carbapen-2-em-3-carboxylate, reference compound], the MIC in [1] is less than 0.025 µg/mL; in [2], 3.13 µg/mL; in [3] it was 0.1 µg/mL; in data set [4] it was 3.13 µg/mL; in [5], less than 0.006 µg/mL; in [6], 1.56 µg/mL. Besides, the MIC came to 6.25 µg/mL in [7] and 0.1 µg/mL in data set [8].
Turning to `C[C@@H](O)[C@H]1C(=O)N2C(C(=O)[O-])=C(c3cn4cnc(C(=O)c5ccc[n+](CCNS(N)(=O)=O)c5)c4s3)[C@H](C)[C@H]12` [Example 65, (1S,5R,6S)-6-((1R)-1-Hydroxyethyl)-1-methyl-2-[7-[1-(2-sulfamoylaminoethyl)pyridinium-3-yl]carbonylimidazo[5,1-b]thiazol-2-yl]-1-carbapen-2-em-3-carboxylate], in data set [9] (setting [12]), the ED50 is reported as 0.32 mg/mouse.
As for `CC(=O)c1ncn2cc(C3=C(C(=O)[O-])N4C(=O)[C@H]([C@@H](C)O)[C@H]4[C@H]3C)sc12.[Na+]` [Compound A, Sodium (1S,5R,6S)-2-(7-acetylimidazo[5,1-b]thiazol-2-yl)-6-((1R)-1-hydroxyethyl)-1-methyl-1-carbapen-2-em-3-carboxylate, reference compound], the MIC in data set [1] came out at 0.031 µg/mL; in data set [2], 0.125 µg/mL; in data set [3], 0.031 µg/mL; in data set [4] it was 0.25 µg/mL; in data set [5], 0.016 µg/mL; in [6], 1 µg/mL. For the same compound, the MIC in data set [7] was 8 µg/mL; in data set [8] it was 0.063 µg/mL.
On to `C[C@@H](O)[C@H]1C(=O)N2C(C(=O)O)=C(c3cn4cnc(C(=O)c5cccnc5)c4s3)[C@H](C)[C@H]12` [Example 1, Sodium (1S,5R,6S)-6-((1R)-1-hydroxyethyl)-1-methyl-2-[7-(pyridin-3-yl)carbonylimidazo[5,1-b]thiazol 2-yl]-1-carbapen-2-em-3-carboxylate], for which the MIC is 0.016 µg/mL in data set [1]; 1 µg/mL in data set [2]; 0.031 µg/mL in data set [3]; 1 µg/mL in data set [4]; less than 0.008 µg/mL in data set [5]; 1 µg/mL in [6]. For the same compound, the MIC in data set [7] amounted to 4 µg/mL; in data set [8], 0.031 µg/mL.
As to `C[C@@H](O)[C@H]1C(=O)N2C(C(=O)[O-])=C(c3cn4cnc(C(=O)c5ccc[n+](CC(N)=O)c5)c4s3)C[C@H]12` [Example 39, (5R,6S)-2-[7-(1-Carbamoylmethylpyridinium-3-yl)carbonylimidazo[5,1-b]thiazol-2-yl]-6-((1R)-1-hydroxyethyl)-1-carbapen-2-em-3-carboxylate], the MIC in data set [1] was found to be 0.031 µg/mL (≈ 0.0644 µM); in data set [2], 0.031 µg/mL (≈ 0.0644 µM); in data set [3] it was 0.063 µg/mL (≈ 0.131 µM); in data set [4], 0.031 µg/mL (≈ 0.0644 µM); in data set [5], 0.008 µg/mL (≈ 0.0166 µM); in [6], 0.25 µg/mL (≈ 0.519 µM). For the same compound, the MIC in [7] was determined as 1 µg/mL (≈ 2.08 µM); in data set [8] it was 0.031 µg/mL (≈ 0.0644 µM). The compound also gave an ED50 in data set [9] (Amount of inoculant: 2.9 × 10^6 CFU/mouse) of 0.02 mg/mouse.
In the case of `CN[C@H](CC(C)C)C(=O)N[C@H]1C(=O)N[C@@H](CC(N)=O)C(=O)N[C@H]2C(=O)N[C@H]3C(=O)N[C@H](C(=O)N[C@H](C(=O)O)c4cc(O)cc(O)c4-c4cc3ccc4O)[C@H](O)c3ccc(c(Cl)c3)Oc3cc2cc(c3O[C@@H]2O[C@H](CO)[C@@H](O)[C@H](O)[C@H]2O[C@H]2C[C@](C)(N)[C@H](O)[C@H](C)O2)Oc2ccc(cc2Cl)[C@H]1O` [Vancomycin, reference compound], the ED50 in data set [9] (setting [11]) worked out at 0.50 mg/mouse; in [9] (setting [12]), 0.71 mg/mouse.
